“Also recorded” adds a separate entry of the source.
Columns and labels:
[1] = XRPD of polymorphs after air-drying or vacuum-drying (solid form stability); format: physicochemical; details: for Crystallinity / XRPD pattern after air-drying: air-dried (overnight); for Crystallinity / XRPD pattern after vacuum-drying: vacuum dried overnight (80° C.)
Method: Large scale studies were performed with HM30181 mesylate Type A starting material on a 200 mg scale as described below. Solids were isolated by vacuum filtration. The wet cakes from filtration from DMA, DMF, and NMP slurries were washed with 1 mL to 2 mL methanol to remove solvents. […]
XRPD was performed using a Panalytical X'Pert3™ Powder XRPD and on a Si zero-background holder. The 2θ position was calibrated against a Panalytical™ 640 Si powder standard. Details of XRPD used in the experiments are listed below in Table 20.

[2] = 1H-NMR check for disproportionation or degradation; format: physicochemical; details: large scale polymorph samples, DMSO-d6
Excerpt: At large scale, a slurry of HM30181 mesylate Type A starting material in methanol at ambient conditions generated a mixture of HM30181 mesylate Type B and HM30181 mesylate Type A after 9 days (see FIG. 32). After 14 days, the slurry in methanol generated a HM30181 mesylate Type N polymorph. […] A scaled-up slurry of HM30181 mesylate Type A starting material in DMA yielded HM30181 mesylate Type E after 6 days (see FIG. 35). […] A scaled-up slurry of HM30181 mesylate Type A starting material in DMF at 50° C. yielded HM30181 mesylate Type F rather than the expected HM30181 mesylate Type G after 9 days (see FIG. 36). […] This slurry was heated in an attempt to generate HM30181 mesylate Type G. A scaled-up slurry of HM30181 mesylate Type A starting material in DMF at 100° C. yielded HM30181 mesylate Type F after 2 days (see FIG. 37). A scaled-up slurry of HM30181 mesylate Type A starting material in DMF at 150° C. yielded a previously unobserved XRPD pattern after 5 days (see FIG. 37).
By 1H-NMR, HM30181 mesylate Type E contained DMA, HM30181 mesylate Type F contains DMF, and HM30181 mesylate Type N contains MeOH.
Proton NMR were obtained using a Varian 200M™ NMR in deuterated DMSO (DMSO-d6).

COc1cc2c(cc1OC)CN(CCc1ccc(-n3nnc(-c4cc(OC)c(OC)cc4NC(=O)c4cc(=O)c5ccccc5o4)n3)cc1)CC2.CS(=O)(=O)O [HM30181 mesylate Type C, HM30181 mesylate]
Crystallinity / XRPD pattern after air-drying [1]: no significant change | Crystallinity / XRPD pattern after vacuum-drying [1]: no loss of crystallinity was detected; also recorded: No change in crystalline pattern | Disproportionation or degradation by 1H-NMR [2]: no disproportionation or degradation was detected

COc1cc2c(cc1OC)CN(CCc1ccc(-n3nnc(-c4cc(OC)c(OC)cc4NC(=O)c4cc(=O)c5ccccc5o4)n3)cc1)CC2.CS(=O)(=O)O [HM30181 mesylate Type D, HM30181 mesylate]
Crystallinity / XRPD pattern after air-drying [1]: Some loss of crystallinity; also recorded: No change in crystalline pattern

COc1cc2c(cc1OC)CN(CCc1ccc(-n3nnc(-c4cc(OC)c(OC)cc4NC(=O)c4cc(=O)c5ccccc5o4)n3)cc1)CC2.CS(=O)(=O)O [HM30181 mesylate Type E, HM30181 mesylate]
Crystallinity / XRPD pattern after vacuum-drying [1]: no loss of crystallinity; also recorded: No change in crystalline pattern | Disproportionation or degradation by 1H-NMR [2]: no disproportionation or degradation was detected

COc1cc2c(cc1OC)CN(CCc1ccc(-n3nnc(-c4cc(OC)c(OC)cc4NC(=O)c4cc(=O)c5ccccc5o4)n3)cc1)CC2.CS(=O)(=O)O [HM30181 mesylate Type F, HM30181 mesylate]
Crystallinity / XRPD pattern after vacuum-drying [1]: Some change of pattern; also recorded: significant reduction in crystallinity | Disproportionation or degradation by 1H-NMR [2]: no disproportionation or degradation was detected

COc1cc2c(cc1OC)CN(CCc1ccc(-n3nnc(-c4cc(OC)c(OC)cc4NC(=O)c4cc(=O)c5ccccc5o4)n3)cc1)CC2.CS(=O)(=O)O [HM30181 mesylate Type G, HM30181 mesylate]
Crystallinity / XRPD pattern after air-drying [1]: No reduction in crystallinity

COc1cc2c(cc1OC)CN(CCc1ccc(-n3nnc(-c4cc(OC)c(OC)cc4NC(=O)c4cc(=O)c5ccccc5o4)n3)cc1)CC2.CS(=O)(=O)O [HM30181 mesylate Type I, HM30181 mesylate]
Crystallinity / XRPD pattern after air-drying [1]: yielded HM30181 mesylate Type J | Crystallinity / XRPD pattern after air-drying ([1]; listed as Type I): Type J on air-drying

COc1cc2c(cc1OC)CN(CCc1ccc(-n3nnc(-c4cc(OC)c(OC)cc4NC(=O)c4cc(=O)c5ccccc5o4)n3)cc1)CC2.CS(=O)(=O)O [HM30181 mesylate Type N, HM30181 mesylate]
Crystallinity / XRPD pattern after vacuum-drying [1]: some loss of crystallinity | Disproportionation or degradation by 1H-NMR [2]: no disproportionation or degradation was detected
